Data on three compounds can be found in patent US20200069675A1, “PHARMACEUTICAL PREPARATIONS OF SEBACOYL DINALBUPHINE AND ACETAMINOPHEN AND METHODS FOR TREATING PAIN” (International Education Foundation, priority 2018, published 2020).

Molecules are shown by their SMILES.

The test system of data set [1] is hospitalized patients with postoperative pain. Conditions: single oral doses, 128 hospitalized patients, evaluated each hour for 6 hours; Clin Pharmacol Ther 1986; 39:295-9; cited from earlier work.
For another data set, the system named is SD rats. Briefly: Paw pressure test (Randall and Selitto), analgesic effect after oral administration. The following applies: alone or combined, mean ± SE; for AUC / AUG: analgesic effect AUC; for AUC: 0-300 min; for Maximum Peak (% of MPA): cut-off 750 g; for Duration of action (min) (20% of MPA): time over 20% MPA; for Onset of action (min) (20% of MPA): time up to 20% MPA. The data set is classed as in vivo, Sprague-Dawley rats. The protocol:
Male Sprague-Dawley rats weights between 260 and 330 g were purchased from BioLASCO (Taipei, Taiwan). The rats were housed in a controlled condition (free access to food and water); 12-h light-dark cycle, temperature 22° C. and humidity 60%. All experiments were conducted in accordance with the IACUC's Protocol for the Care and Use of Animals and to treat the animals in an ethical and humane manner consistent with the law.
Analgesic effects studies were used to the paw pressure test by Randall and Selitto. Nociceptive threshold is expressed in grams and measured with an analgesimeter (IITC Inc. Life Science, CA), were applied to the left hind paw of rats. All animals were tested at 15, 30, and 45 min prior to medication, to obtain an average baseline. Results were expressed as a percentage of the maximum possible effect (% MPE), according to the formula % MPA=(Test-Baseline)/(Cutoff-Baseline)×100, cut-off value: 750 g. AUC (area under curve) is independent of each individual, at each time point detection value minus own baseline and integral, then calculated the average. Negative values (% MPA and AUC) are considered as zero. The maximum peak of % MPA and Tmax are independent of each individual, then calculated the average. With 20% MPA as a baseline of valid analgesic effect, analysis of onset time of action up to 20% MPA and duration time of action over 20% MPA. Pharmacodynamic studies were conducted to compare in rats the analgesic effects of oral administration of SDE 75 mg/kg alone. AAP product (100 mg/kg) alone and combinations of SDE 75 mg/kg plus AAP product (100 mg/kg) or NAL 60 mg/kg alone. AAP product (100 mg/kg) alone and combinations of NAL 60 mg/kg plus AAP product (100 mg/kg). The anti-nociceptive thresholds were measured at 30, 60, 90, 120, 150, 180, 210, 240, 270, and 300 min after drug administration.

The conditions of data set [2]: conventional form, Br J Clin Pharmacol 1988, 25:264-8; cited from earlier work.
The next data set has as its system postoperative pain. Conditions: oral vs intramuscular; cited from earlier work.
Where [3] appears, read: Test 1, AAP product 100 mg/kg, SDE 75 mg/kg.
Setting [4] is: Test 1, AAP product 100 mg/kg, SDE 75 mg/kg, time of maximum % MPA.
[5] abbreviates: Test 2, NAL 60 mg/kg, AAP product 100 mg/kg.
[6] abbreviates: Test 2, NAL 60 mg/kg, AAP product 100 mg/kg, MPA greater than 50%.

Consider `CC(=O)Nc1ccc(O)cc1` [AAP, acetaminophen], for which, in data set [1], the “analgesic effect (measures of total and peak analgesia)” value was “significantly superior to placebo”. Moreover, in the data set with SD rats (setting [3]), the “AUC” value was found to be 309.3 ± 68.5 g·h, the “Maximum Peak (% of MPA)” value is listed as 32.4 ± 2.7 % of MPA, the “Duration of action (min) (20% of MPA)” value was found to be 77.5 ± 13.5 min and the “Onset of action (min) (20% of MPA)” value came to 46.7 ± 17.5 min. For the same compound, in the data set on SD rats (setting [4]), the “Tmax” value amounted to 50.0 ± 10.0 min. Further, in the data set on SD rats (setting [5]), the “AUG” value came out at 274.83 ± 51.94 g·h, the “% MPA (Maximum Peak)” value is on record as 38.26 ± 7.2 % MPA and the “Tmax” value is 45 ± 8.66 min.

Take `Oc1ccc2c3c1O[C@H]1[C@@H](O)CC[C@@]4(O)[C@@H](C2)N(CC2CCC2)CC[C@]314` [NAL, nalbuphine]: the “analgesic effect (measures of total and peak analgesia)” value in data set [1] is “significantly superior to placebo”. Further, the “bioavailability through oral administration” value in data set [2] is “less than 5%”. Further, in the data set with SD rats (setting [6]), the “Duration of action” value is reported as 16.61 ± 3.92 min and the “Onset of action” value turned out to be 24.36 ± 0.86 min. In addition, in the data set on SD rats (setting [5]), the “AUG” value came out at 298.9 ± 13.98 g·h, the “% MPA (Maximum Peak)” value was found to be 57.87 ± 2.77 % MPA and the “Tmax” value came out at 30 ± 0 min. For the same compound, the “potency of oral relative to intramuscular nalbuphine as postoperative analgesic” value in the data set on postoperative pain is “one quarter to one fifth as potent as intramuscular nalbuphine”.

`O=C(CCCCCCCCC(=O)Oc1ccc2c3c1O[C@H]1[C@@H](O)CC[C@@]4(O)[C@@H](C2)N(CC2CCC2)CC[C@]314)Oc1ccc2c3c1O[C@H]1[C@@H](O)CC[C@@]4(O)[C@@H](C2)N(CC2CCC2)CC[C@]314` [SDE, sebacoyl dinalbuphine ester]: in the data set with SD rats (setting [3]), the “AUC” value came out at 359.4 ± 34.8 g·h, the “Maximum Peak (% of MPA)” value was 46.6 ± 3.8 % of MPA, the “Duration of action (min) (20% of MPA)” value was found to be 99.8 ± 10.0 min and the “Onset of action (min) (20% of MPA)” value is given as 14.7 ± 1.3 min. Further, in the data set with SD rats (setting [4]), the “Tmax” value is 37.5 ± 3.9 min.
